Test results as given in patent publication EP4755885A1 (Shanghai Hansoh Biomedical Co., Ltd., priority 2023, dated 2025).

Tests used:
[1] = Pharmacokinetic evaluation in beagles, oral administration; type: in vivo; conditions: male, beagle, dog, po, p.o. 2 mg/kg, plasma
Experimental: Beagles were used as test animals to study the pharmacokinetic behavior of the compound of the present invention, administered orally at a dose of 2 mg/kg, in beagles (plasma).
Beagles, 3 per group, male.
Preparation of drug for oral administration: 10%PEG400/10%PG/80% glycine buffer (100 mM glycine, 64 Mm NaOH, […]) buffer.
Single PK: The compound of the present invention was weighed into a 100 mL glass bottle, and the solution was added. The pH was first adjusted with 1 M NaOH until the compound dissolves to obtain a clear solution, and then the pH was readjusted to pH 9.0-9.5 with 1 M HCl. Sonication was performed for 10 min to obtain a colorless clear solution having a concentration of 0.4 mg/mL.
Three beagles, male, respectively administered p.o. after fasting overnight, at a dose of 2 mg/kg and in an administration volume of 5 mL/kg.
Blood collection: 0.3 mL of blood was collected from the forelimb vein of the beagles before administration and at 0.25, 0.5, 1, 2, 4, 6, 8, and 24 h after administration. The blood samples were placed in EDTA-K2 anticoagulant tubes and centrifuged at 6000 rpm at 4°C for 6 min to separate plasma, which was stored at -80°C. The beagles were fed 4 h after administration.
• 1) 40 µL of a plasma sample was added with 160 µL of acetonitrile for precipitation, and after mixing, the mixture was centrifuged at 3500 × g for 5 to 20 min. • 2) The supernatant solution after treatment was taken for LC/MS/MS analysis of the concentration of the test compound. The LC/MS/MS analysis instrument was AB Sciex API 4000 Qtrap.
• Liquid phase condition: Shimadzu LC-20AD pump • Chromatographic column: Agilent ZORBAX XDB-C18 (50×2.1 mm, 3.5 µm) Mobile phase: Solution A was 0.1% formic acid aqueous solution, and Solution B was acetonitrile • Flow rate: 0.4 mL/min • Elution time: 0-4.0 min, the eluent was as follows: […]

[2] = target: T1, human GLP-1 receptor (Homo sapiens, UniProt P43220); assay: cAMP production in cell line stably transformed with human GLP1 receptor, 30 min co-incubation (HTRF); type: cell-based; conditions: CHO-K1/GLP-1R/CRE-luc cells, stimulation for 0.5 h, read-out: EC50
T1 construct: expressed in transfected cells
T1 sequence (P43220 24-463): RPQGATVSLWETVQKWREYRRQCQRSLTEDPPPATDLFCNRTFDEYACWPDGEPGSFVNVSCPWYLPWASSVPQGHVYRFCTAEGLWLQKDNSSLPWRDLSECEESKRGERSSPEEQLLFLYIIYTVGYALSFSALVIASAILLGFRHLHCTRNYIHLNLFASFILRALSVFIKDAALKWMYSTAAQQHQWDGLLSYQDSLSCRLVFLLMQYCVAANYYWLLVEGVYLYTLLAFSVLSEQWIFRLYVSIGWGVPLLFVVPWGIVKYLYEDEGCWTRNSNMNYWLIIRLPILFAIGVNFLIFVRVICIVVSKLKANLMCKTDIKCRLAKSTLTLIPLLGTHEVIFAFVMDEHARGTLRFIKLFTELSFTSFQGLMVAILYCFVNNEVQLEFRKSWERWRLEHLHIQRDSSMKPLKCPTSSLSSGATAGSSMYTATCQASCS
Experimental: The purpose of this assay example is to test the ability of the compound to activate the human GLP-1 receptor on cell surface. The EC50 for stimulated cAMP production after activation characterizes the ability of the compound to activate the human GLP-1 receptor.
In this experiment, the compound and cells were co-incubated for 30 min.
Frozen cell line CHO-K1/GLP-1R/CRE-luc stably transformed with human GLP1 receptor was removed from a liquid nitrogen tank, and was placed in a 37°C water bath for rapid thawing. The cells were resuspended in DMEM/F12 medium, and after centrifugation, were washed once. The cells were resuspended in an experimental buffer, i.e., DMEM/F12 medium containing 0.1% casein. After centrifugation, cell density was adjusted using the experimental buffer. The cells were plated onto a 384-well plate at a density of 1500 cells/5 µL/well. Then, each well was added with 2.5 µL of IBMX working solution prepared with the buffer, the final concentration of IBMX being 0.5 mM, and 2.5 µL of a serially diluted compound sample (starting from […], 3-fold dilution, 12 concentrations). The plate was centrifuged at 1000 rpm for 1 min, and was stood for incubation at 37°C for 0.5 h. Determination was performed using the Cisbio cAMP - Gs Dynamic kit. cAMP-d2 and anti-cAMP-Eu3+-Cryptate were diluted 18-fold and 20-fold respectively with cAMP Lysis & Detection Buffer, and were respectively mixed homogeneously. Each well was added with 5 µL of diluted cAMP-d2 solution, and the plate was centrifuged at 1000 rpm for 1 min, and shaken for 30 seconds for homogeneous mixing. Then, each well was added with 5 µL of diluted anti-cAMP-Eu3+-Cryptate solution, and the plate was centrifuged at 1000 rpm for 1 min and was incubated in the dark at room temperature for 1 h. HTRF signals were read using the Biotek Synergy H1 microplate reader, the excitation wavelength being 320 nm and the emission wavelengths being 620 nm and 665 nm.
The signal-to-signal ratio was calculated (665 nm/620 nm * 10,000). Nonlinear fitting between the signal-to-signal ratio and the sample concentration was performed in GraphPad Prism 10 using a four-parameter equation to obtain the EC50 value.

[3] = target: T1, human GLP-1 receptor; assay: cAMP production in cell line stably transformed with human GLP1 receptor, 2 h co-incubation (HTRF); type: cell-based; conditions: CHO-K1/GLP-1R/CRE-luc cells, stimulation for 2 h, read-out: EC50
Method in brief: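 CHO-K1/GLP-1R/CRE-luc cells (human GLP-1R) incubated 2 h at 37 °C with compound (12-point 3-fold series) and 0.5 mM IBMX in DMEM/F12 with 0.1% casein. cAMP measured by HTRF (665/620 nm ratio); EC50 from four-parameter fit.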

- AUC(0-inf) [1]: 19400 ng·h/mL
- half-life [1]: 4.1 h
- AUC(0-t) ([1]; read-out: AUC 0-t): 19200 ng·h/mL
- Cmax ([1]; read-out: Cmax): 3600 ng/mL
- MRT inf ([1]; read-out: MRT 0-∞): 5.3 h
- Tmax ([1]; read-out: tmax): 1.5 h
- EC50 [2]: 710 pM
- EC50 [3]: 90 pM
Compound: [2H]C([2H])([2H])n1nc2c3c(c(-n4ccn(-c5c6c(nn5-c5cc(C)c(F)c(C)c5)CCN(C(=O)c5cc7cc([C@H]8CCOC(C)(C)C8)ccc7n5[C@@]5(c7noc(=O)[nH]7)C[C@@H]5COC5CC5)[C@H]6C)c4=O)ccc31)OCCC2 [Example 285, 3-((1S,2S)-2-(cyclopropyloxymethyl)-1-(5-((S)-2,2-dimethyltetrahydro-2H-pyran-4-yl)-2-((S)-2-(4-fluoro-3,5-dimethylphenyl)-4-methyl-3-(3-(2-(methyl-d3)-2,7,8,9-tetrahydrooxahepta[4,3,2-cd]indazol-5-yl)-2-carbonyl-2,3-dibydro-1H-imidazol-1-yl)-4,5,6,7-tetrahydro-2H-pyrazolo[4,3-c]pyridine-5-carbonyl)-1H-indol-1-yl)cyclopropyl)-1,2,4-oxadiazol-5(4H)-one]
